Source: PMC5492227 (European journal of medicinal chemistry, 2017)

Molecular target: T1, EPAC1 (Homo sapiens, UniProt O95398)
T1 sequence (O95398 1-923): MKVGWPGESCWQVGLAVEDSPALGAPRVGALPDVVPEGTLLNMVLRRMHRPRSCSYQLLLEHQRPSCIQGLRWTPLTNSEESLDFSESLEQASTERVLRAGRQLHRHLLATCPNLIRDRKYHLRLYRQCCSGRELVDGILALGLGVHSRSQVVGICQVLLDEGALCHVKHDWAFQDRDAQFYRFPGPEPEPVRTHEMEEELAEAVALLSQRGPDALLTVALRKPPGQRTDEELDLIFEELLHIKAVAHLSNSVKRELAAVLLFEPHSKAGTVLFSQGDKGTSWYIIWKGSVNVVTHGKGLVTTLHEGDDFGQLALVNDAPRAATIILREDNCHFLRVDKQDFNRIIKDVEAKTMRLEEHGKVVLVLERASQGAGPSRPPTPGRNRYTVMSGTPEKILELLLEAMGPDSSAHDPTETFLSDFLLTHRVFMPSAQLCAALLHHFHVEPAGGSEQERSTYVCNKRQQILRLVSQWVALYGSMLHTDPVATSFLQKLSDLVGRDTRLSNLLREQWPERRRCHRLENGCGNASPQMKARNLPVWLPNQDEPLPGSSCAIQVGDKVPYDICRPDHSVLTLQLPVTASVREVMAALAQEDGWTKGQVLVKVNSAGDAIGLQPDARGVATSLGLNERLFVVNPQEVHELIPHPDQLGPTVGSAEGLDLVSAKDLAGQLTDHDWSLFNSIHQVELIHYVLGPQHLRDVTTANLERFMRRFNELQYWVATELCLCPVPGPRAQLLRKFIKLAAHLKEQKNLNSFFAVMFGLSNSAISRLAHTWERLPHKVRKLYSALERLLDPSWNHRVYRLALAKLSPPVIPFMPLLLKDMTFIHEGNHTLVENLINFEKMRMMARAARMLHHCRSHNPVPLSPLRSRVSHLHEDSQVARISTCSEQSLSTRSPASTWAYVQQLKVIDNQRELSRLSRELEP
Test: biochemical
Assay type: biochemical

Structure (SMILES)	IC50 (Rap1b-bGDP EPAC1 IC50, purified recombinant full-length EPAC1, 20 μM cAMP, mean ± SD of at least three independent experiments)	fold increase in potency compared to that of 1 (EPAC1)
N#C/C(=N\Nc1cccc(Cl)c1)C(=O)c1cc(-c2ccco2)on1 [Compound 25, N-(3-Chlorophenyl)-2-(5-(furan-2-yl)isoxazol-3-yl)-2-oxoacetohydrazonoyl cyanide]	3.6 µM	–
N#C/C(=N\Nc1ccc(Cl)c(C(F)(F)F)c1)C(=O)c1cc(-c2ccccc2)on1 [Compound 14, N-(3-Trifluromethyl-4-chlorophenyl)-2-oxo-2-(5-phenylisoxazol-3-yl)acetohydrazonoyl cyanide]	–	about 5 fold
